Measurements: patent US11365183B2, “Eicosanoid derivatives” (MAX-DELBRUECK-CENTRUM FUER MOLEKULARE MEDIZIN, priority 2009, dated 2022)
“Also recorded” adds a separate entry of the source.

What was measured:
[1] = test system: neonatal rat cardiomyocytes (NRCMs); test: NRCM bioassay with pharmacological inhibitors (mechanism of cellular action); type: cell-based; conditions: for inhibition of the negative chronotropic effects of EPA, 17,18-EETeTr and C13: 5 min preincubation, 11,12-EET 30 nM, C3, AH6089 10 μM, EPA 3.3 μM, 17,18-EETeTr 30 nM, C13 30 nM; for inhibition of the negative chronotropic effects of EPA, 17,18-EETeTr and C13 / blocking of the positive chronotropic effect of butaprost: calphostin C 100 nM, H89 1 μM; for blocking of the positive chronotropic effect of butaprost: butaprost 100 nM, AH6089 10 μM
Experimental: The bioassay with NRCMs was performed as described in examples 25 and 26. […] The cultured NRCMs were preincubated without or with one of the compounds indicated in FIG. 4 for 5 min before the effect of the following agonists was determined: EPA (3.3 μM), 17,18-EETeTr (30 nM) or C13 (30 nM). In some experiments, the NRCMs were stimulated with a selective EP2 prostanoid receptor agonist (butaprost from Sigma-Aldrich; used at a final concentration of 100 nM) to provide a control for the effect of certain inhibitors.

[2] = test system: neonatal rat cardiomyocytes (NRCMs); test: Chronotropic effect on spontaneous beating rate of cultured neonatal rat cardiomyocytes (identification of agonists); type: cell-based; conditions: for chronotropic effect (Δ beats/min), mean±SE / agonistic / chronotropic effect on NRCMs, in words: 30 nM, incubation time 5 min; for chronotropic effect (Δ beats/min), mean±SE: NRCM clusters; for agonistic / chronotropic effect on NRCMs, in words: compound alone
Text: This negative chronotropic effect reflects the capacity of the analogs to interact with and to activate a G-protein coupled receptor or other primary cellular targets that reduce the contractility of cardiomyocytes under basal and stress-induced conditions.
The compounds included EPA and 17,18-EETeTr (compounds 01 and 02; purchased from Cayman Chemical) as well as all but one (compound 16) of the analogs synthesized as described in examples 1-24. The R,S— and S,R-enantiomers of 17,18-EETeTr (compounds 03 and 04) were prepared resolving the racemic mixture (compound 02) by means of chiral-phase HPLC as described previously (Barbosa-Sicard E, Markovic M, Honeck H, Christ B, Muller D N, Schunck W H. Biochem Biophys Res Commun. 2005 Apr. 22; 329(4):1275-81). Before use, the compounds to be tested were prepared as 1000-fold stock solutions in ethanol.
Isolation and cultivation of NRCMs were performed as described previously (Wallukat, G; Wollenberger, A. Biomed Biochim Acta. 1987; 78:634-639; Wallukat G, Homuth V, Fischer T, Lindschau C, Horstkamp B, Jupner A, Baur E, Nissen E, Vetter K, Neichel D, Dudenhausen J W, Haller H, Luft F C. J Clin Invest. 1999; 103: 945-952). Briefly, neonatal Wistar rats (1-2 days old) were killed in conformity to the recommendations of the Community of Health Service of the City of Berlin and the cardiomyocytes were dissociated from the minced ventricles with a 0.2% solution of crude trypsin. The isolated cells were then cultured as monolayers on the bottom (12.5 cm^2) of Falcon flasks in 2.5 ml of Halle S M 20-I medium equilibrated with humidified air. The medium contained 10% heat-inactivated FCS and 2 μmol/l fluoro-deoxyuridine (Serva, Heidelberg, Germany), the latter to prevent proliferation of non-muscle cells. The NRCMs (2.4×10^6 cells/flask) were cultured at 37° C. in an incubator. After 5 to 7 days, the NRCMs formed spontaneously beating cell clusters. […] On the day of the experiment, the culture medium was replaced by 2.0 ml fresh serum-containing medium. Two hours later, the beating rates were monitored at 37° C. using an inverted microscope equipped with a heating stage. To determine the basal rate, 6 to 8 individual clusters were selected and the number of contractions was counted for 15 sec. After that, the compound to be tested was added to the culture and the beating rate of the same clusters was monitored 5 min later again. Based on the difference between the basal and compound-induced beating rate of the individual clusters, the chronotropic effects (Δ beats/min) were calculated and are given as mean±SE values. N refers to the number of clusters monitored which originated, in general, from at least three independent NRCM cultures.
This effect was fully expressed using an EPA concentration of 3.3 μM and an incubation time of 30 min. In contrast, 17,18-EETeTr (C02) produced the same effect almost immediately and already in the low nanomolar range (EC50 of 1-2 nM, data not shown). To compare the activity of 17,18-EETeTr with that of its synthetic analogs, all these compounds were tested at a final concentration of 30 nM and using an incubation time of 5 min.

[3] = test system: neonatal rat cardiomyocytes (NRCMs); test: Antagonism of the negative chronotropic effect of agonists in NRCMs (identification of antagonists); type: cell-based; conditions: for inhibition of the agonistic effect of compound C4: 5 min preincubation, C4 and potential antagonist each 30 nM
Experimental: These antagonists were selected based on their capacity to abolish the negative chronotropic effects of EPA, 17,18-EETeTr and their synthetic agonists on the contractility of neonatal rat cardiomyocytes.
Potential antagonists included compounds C1, C3, C5, C6, C7, and C8, which were synthesized as described above in the corresponding examples.
The bioassay was performed with NRCMs as described in example 25. In the first series of experiments, compound C4 was used as the agonist and its effect was determined after preincubating the cultured NRCMc for 5 min with one of the potential antagonists. Both C4 and the potential antagonist were used at a final concentration of 30 nM.

[4] = test system: rat model of myocardial infarction; test: Anti-arrhythmic effect in rat model of myocardial infarction (LAD ligation); type: in vivo; conditions: male Wistar rats
Experimental: Study design: To gain insight into the in-vivo effects of synthetic 17,18-EETeTr-agonists, myocardial infarction studies were performed in male Wistar rats. Briefly, rats weighing 220-250 g were randomized to receive an i.v. bolus of compound C17 (100 μg in 300 μl 0.9% NaCl) or only 300 μl 0.9% NaCl as vehicle control two hours before induction of myocardial infarction. For safe bolus application, animals were mildly anesthetized using isoflorane. Two hours after bolus application, animals were re-anesthetized with a mixture of ketamine and xylazine (i.v.). Continuous monitoring of the surface-ECG was started (EPTracer, Netherlands) and maintained until the end of the study. After recording of the basal ECG, myocardial infarction was induced by ligation of the left anterior descending artery (LAD). One hour after myocardial infarction animals were sacrificed and organ harvested. Samples from urine, blood, liver, kidney and heart were stored for further analysis.
Method of arrhythmia analysis: Ventricular tachycardia burden was calculated as the sum of all arrhythmic events originating from the ventricular myocardium, which were observed within the first hour after induction of myocardial infarction. In order to quantify not only the frequency but also the severity of the ventricular arrhythmias, an arrhythmia-severity-score was calculated. This score was calculated as the sum of the number of different arrhythmia events (PVC, couplet, triplet, VT<1.5 sec, VT>=1.5 sec), each class factorized by an increasing severity index of 1-5 (e.g. PVC×1, couplets×2, . . . , VT>=1.5 sec×5).

Compound: CCCCC/C=C\CC1OC1C/C=C\C/C=C\CCCC(=O)O (centres unmarked) [11,12-EET, 11,12-epoxyeicosatrienoic acid]
- inhibition of the negative chronotropic effects of EPA, 17,18-EETeTr and C13 [1]: strongly inhibited

Compound: CCC1OC1C/C=C/C/C=C/C/C=C/C/C=C/CCCC(=O)O (centres unmarked) [17,18-EETeTr, reference compound]
- chronotropic effect (Δ beats/min), mean±SE [2]: −22.5±0.8 beats/min
- EC50 ([2]; NRCMs, effect almost immediate, data not shown, read-out: EC50 of reduction of the beating rate): 1 to 2 nM
- agonistic / chronotropic effect on NRCMs, in words [2]: acted as agonist

Compound: CC(C)Oc1ccc2c(=O)c3cc(C(=O)O)ccc3oc2c1 [AH6089]
- inhibition of the negative chronotropic effects of EPA, 17,18-EETeTr and C13 [1]: strongly inhibited
- blocking of the positive chronotropic effect of butaprost [1]: blocked

Compound: CCC1OC1C/C=C\CCCCCCC/C=C\CCCC(=O)O (centres unmarked) [Compound C1, (5Z,14Z)-16-(3-Ethyloxirane-2-yl)hexadeca-5,14-dienoic acid]
- agonistic / chronotropic effect on NRCMs, in words [2]: inactive when tested alone
- inhibition of the agonistic effect of compound C4 [3]: did not inhibit

Compound: CCC1OC1CCCC/C=C\CCCC/C=C\CCCC(=O)O (centres unmarked) [Compound C2, (5Z,11Z)-16-(3-Ethyloxirane-2-yl)hexadeca-5,11-dienoic acid]
- agonistic / chronotropic effect on NRCMs, in words [2]: Agonists

Compound: CCC1OC1C/C=C\CCCC/C=C\CCCCCCC(=O)O (centres unmarked) [Compound C3, (8Z,14Z)-16-(3-Ethyloxirane-2-yl)hexadeca-8,14-dienoic Acid]
- agonistic / chronotropic effect on NRCMs, in words [2]: did not exert any significant effect
- inhibition of the agonistic effect of compound C4 [3]: significantly inhibited
- effect on the negative chronotropic effect of EPA ([3]; antagonist 30 nM, EPA 3.3 μM): abolished
- antagonistic effect against C4, EPA, 17,18-EETeTr, C2 and C13 ([3]; antagonist 30 nM, EPA 3.3 μM, other agonists 30 nM each): highly potent antagonist
- effect on the negative chronotropic effect of C13 ([3]; both analogs in equimolar concentrations (30 nM)): almost completely blocked
- inhibition of the negative chronotropic effects of EPA, 17,18-EETeTr and C13 [1]: strongly inhibited
- blocking of the positive chronotropic effect of butaprost [1]: not

Compound: CCC1OC1CCCC/C=C\CCCCCCCCCC(=O)O (centres unmarked) [Compound C4, 16-[(Z)-3-Ethyloxiranyl]hexadec-11(Z)-enoic Acid]
- chronotropic effect (Δ beats/min), mean±SE [2]: −18.3±1.5 beats/min
- agonistic / chronotropic effect on NRCMs, in words [2]: Agonists; also recorded: agonistic effects

Compound: CCC1OC1C/C=C\CCCCCCCCCCCCC(=O)O (centres unmarked) [Compound C5, 16-[(Z)-3-Ethyloxiranyl]hexadec-14(Z)-enoic Acid]
- agonistic / chronotropic effect on NRCMs, in words [2]: no effect; also recorded: did not exert any significant effect
- inhibition of the agonistic effect of compound C4 [3]: significantly inhibited

Compound: CCC1OC1CCCCCCC/C=C\CCCCCCC(=O)O (centres unmarked) [Compound C6, 16-[(Z)-3-Ethyloxiranyl]hexadec-8(Z)-enoic Acid]
- agonistic / chronotropic effect on NRCMs, in words [2]: inactive when tested alone
- inhibition of the agonistic effect of compound C4 [3]: did not inhibit

Compound: CCC1OC1CCCCCCCCCC/C=C\CCCC(=O)O (centres unmarked) [Compound C7, 16-[(Z)-3-Ethyloxiranyl]hexadec-5(Z)-enoic Acid]
- agonistic / chronotropic effect on NRCMs, in words [2]: inactive when tested alone
- inhibition of the agonistic effect of compound C4 [3]: did not inhibit

Compound: CCC1OC1CCCCCCCCCCCCCCCC(=O)O (centres unmarked) [Compound C8, 16-[(Z)-3-Ethyloxiranyl]hexadecanoic Acid]
- agonistic / chronotropic effect on NRCMs, in words [2]: inactive when tested alone
- inhibition of the agonistic effect of compound C4 [3]: did not inhibit
- melting point: 62.1 to 62.5 °C

Compound: CCCC(=O)NCCCC/C=C\CCCCCCCCCC(=O)O [Compound C12, 16-(Butyrylamino)hexadec-11(Z)-enoic acid]
- agonistic / chronotropic effect on NRCMs, in words [2]: largely inactive
- melting point: 99.2 to 99.6 °C

Compound: CNC(=O)C(=O)NCCCC/C=C\CCCCCCCCCC(=O)O [Compound C13, 16-(2-(methylamino)-2-oxoacetamido)hexadac-11(Z)-enoic acid]
- chronotropic effect (Δ beats/min), mean±SE [2]: −33.7±1.3 beats/min
- agonistic / chronotropic effect on NRCMs, in words [2]: Agonists

Compound: CCNC(=O)NCCCC/C=C\CCCCCCCCCC(=O)NCC(=O)[O-].[Na+] [Compound C17, Sodium (Z)-2-(16-(3-Ethylureido)hexadec-11-enamido)acetate]
- agonistic / chronotropic effect on NRCMs, in words [2]: Agonists
- side effects of bolus injection ([4]; i.v. bolus 100 μg): did not induce any obvious negative side effects
- ventricular tachycardia burden ([4]; i.v. bolus 100 μg two hours before LAD ligation, first hour after infarction, n=5): 7526.2±5664.3 ms/h
- arrhythmia severity score ([4]; i.v. bolus 100 μg two hours before LAD ligation, n=5): 125±25 arbitrary units

Compound: CCNC(=O)NCCCC/C=C\CCCCCCCCCC(=O)OCCOCCOCCO [Compound C18, 2-(2-(2-Hydroxyethoxy)ethoxy)ethyl 16-(3-ethylureido)hexadec-11 (Z)-enoate]
- agonistic / chronotropic effect on NRCMs, in words [2]: Agonists

Compound: CCCC(=O)NC/C=C\CCCCCCCCCCCCC(=O)O [Compound C22, 16-Butyramidohexadec-14(Z)-enoic acid]
- agonistic / chronotropic effect on NRCMs, in words [2]: positive chronotropic effect
- melting point: 72.7 to 73.1 °C

Compound: CCCCNC(=O)CCC/C=C\CCCCCCCCCC(=O)O [Compound C24, 16-(Butylamino)-16-oxohexadec-11 (Z)-enoic acid]
- agonistic / chronotropic effect on NRCMs, in words [2]: Agonists; also recorded: maintain
- melting point: 78.2 to 78.8 °C

Compound: O=S(=O)(NCCNC/C=C/c1ccc(Br)cc1)c1cccc2cnccc12 [Compound H89]
- inhibition of the negative chronotropic effects of EPA, 17,18-EETeTr and C13 [1]: not affected
- blocking of the positive chronotropic effect of butaprost [1]: blocked

Compound: CC/C=C\C/C=C\C/C=C\C/C=C\C/C=C\CCCC(=O)O [EPA, eicosapentaenoic acid, reference compound]
- concentration resulting in a progressive reduction of the beating rate ([2]; NRCM cultures): above 1 μM
- concentration at which the reduction of the beating rate was fully expressed ([2]; incubation time of 30 min): 3.3 µM

Compound: CCCC1([C@H](O)C/C=C/[C@H]2[C@H](O)CC(=O)[C@@H]2CCCCCCC(=O)OC)CCC1 [butaprost]
- chronotropic effect on NRCMs ([1]; 100 nM): positive chronotropic effect

Compound: calphostin C
- inhibition of the negative chronotropic effects of EPA, 17,18-EETeTr and C13 [1]: strongly inhibited
- blocking of the positive chronotropic effect of butaprost [1]: not
